# According to patent US9790211B2, “5-amino-quinoline-8-carboxamide derivatives as 5-HT4 receptor agonists” (SUVEN LIFE SCIENCES LIMITED, priority 2013, dated 2017):
# Experiments:
# Aβ1-40 = assay: Effect on CSF Aβ1-40 level (ELISA); type: in vivo, Male Sprague Dawley Rat; settings: p.o., at two hour
# Procedure: The control group of male rats received a vehicle (reagent grade water) per orally by gavage at a dose volume of 10 mL/kg. The treated groups (6 rat per group) received a single dose of test compound (different doses) or DAPT (50.0 mg/kg). Two hour post dose of vehicle or test compounds, rats were anesthetized with isoflurane and CSF was collected from Cisterna magna using 0.5 mL syringes by utilizing stereotaxic frame. The CSF samples were frozen in liquid nitrogen and stored at −80° C. until ELISA was performed.
# • 1. CSF samples were thawed to RT and diluted with Tris Buffer Saline containing protease inhibitors at 1:10 ratio 115:150 μL (15 μL CSI+135 μL TBS. • 2. To this diluted CSF samples 0.15 mL of EIA buffer (1:1 ratio) was added. These diluted samples were subjected for Aβ1-40 level measurement by ELISA. Measurement of Aβ1-40 by ELISA Kit:
# To investigate the role of an acute treatment of test compound on Aβ1-40 levels, expression of this protein in CSF was measured in treated and untreated rat by ELISA assay. The entire procedure was followed as per ELISA kit manual (Mouse/Rat Amyloid-Aβ1-40 ELISA, Cat No: 27721, IBL International, Hamburg, Germany).
# Statistical analysis was performed using the Graph Pad Prism (Version 4). Data are Mean±SD of Aβ1-40 levels expressed as percentage of control values (rat which received regent grade water). Values were compared between the different groups by using unpaired t test. The significance level was set at *p<0.05; **p<0.01; ***p<0.001.
# sAPPα = assay: Estimation of mice brain cortical sAPPα levels (ELISA); type: in vivo; settings: s.c., 60 minutes post treatment
# Procedure: The control group of mice received sterile water for injection subcutaneously (s.c.). […] Mice were sacrificed 60 minutes after the drug injection by cervical dislocation, the brains were quickly isolated and the cortex was dissected at −20° C. The cortex was immediately kept on a dry ice and weighed before being stored at −80° C. until Enzyme-linked immunosorbent assay (ELISA) was performed. • 1. Brain tissues were thawed and Tris Buffer Saline containing protease inhibitors (TBS, 4 times by volume) added (0.8 mL/200 mg tissues). • 2. Brain tissue samples were homogenized using glass-Teflon homogenizer at 10 strokes. The resulting homogenates were centrifuged at 15,000 rpm at 4° C. for 60 minutes. • 3. The supernatant was discarded and to the precipitate, 4 times volume (0.8 mL/200 mg tissues) of TBS was added. Again homogenized followed by centrifugation at 15,000 rpm 4° C. for 30 minutes. • 4. From the above centrifuged mixture the supernatant was discarded and 10 times volume of 6M Guanidine-HCl in 50 mM Tris buffer pH: 7.6 (500 μL/50 mg tissues) was added. The resulting solution was sonicated for 5 seconds, 4 times. • 5. Resulting mixture was incubated at the RT for 30 minutes, followed by centrifugation at 15,000 rpm, 4° C. for 30 minutes. From this 5 μL of supernatant solution was taken and diluted with 155 μL of EIA buffer (dilution factor 32). Measurement of sAPPα by ELISA Kit: To investigate the role of an acute treatment of test compound on sAPPα levels, we measured the expression of this protein in homogenates from the cortex of treated and untreated mice by ELISA assay. The entire procedure was followed as described in the ELISA kit manual (Mouse/Rat sAPPα ELISA, Catalog Number: JP27415, […], Hamburg, Germany). Statistical analyses were performed using the Graph Pad Prism (Version 4). Data are Mean±SD of sAPPa levels expressed as percentage of control values (mice which received water for injection). Values were compared between the different groups by using unpaired t test. The significance level was set at *p<0.05; […]; ***<0.001.
# [1] = tested on: Scopolamine Induced amnesia; assay: Radial arm maze; type: in vivo; settings: p.o., rats
# Description: The cognition enhancing properties of compounds of formula (I) of this invention were estimated by using this model.
# Radial arm maze consists of a central hub of 45 cm diameter. Each arm was of dimension 42.5×15×24 cm. The maze was elevated to a height of 1 m above the ground. The animals were placed on a restricted diet until they reached approximately 85% of their free feeding weight. During this diet restriction period animals were habituated to the novel feed (pellets). Once the rats reached approximately 85% of their free feeding weight rats were habituated to the maze on the 1st and 2nd day. […] Animals were randomized on day 2. On the subsequent days the treatment was given as per the allotment: Each animal was introduced into the maze individually for a period of 10 minutes. The arms were baited only once and the animal had to learn the rule that repeated arm entries would not be rewarded. The trial ended once the rat had visited 16 arms or 10 minutes were over or all the pellets were eaten. The arm entries were recorded using the software. Once the trial was over the rat was removed and the maze was cleaned using soap water.
Compound,decrease in the rat CSF Aβ1-40 levels (Aβ1-40; 0.03 mg/kg),decrease in the rat CSF Aβ1-40 levels (Aβ1-40; 0.1 mg/kg),decrease in the rat CSF Aβ1-40 levels (Aβ1-40; 0.3 mg/kg),decrease in the rat CSF Aβ1-40 levels (Aβ1-40; 1.0 mg/kg),decrease in the rat CSF Aβ1-40 levels (Aβ1-40; 3.0 mg/kg),increase in the mice brain cortical sAPPα levels (sAPPα; 0.3 mg/kg),increase in the mice brain cortical sAPPα levels (sAPPα; 1.0 mg/kg),increase in the mice brain cortical sAPPα levels (sAPPα; 3.0 mg/kg),increase in the mice brain cortical sAPPα levels (sAPPα; 10.0 mg/kg),Reversal of Scopolamine Induced amnesia - Effective dose range [1]
"Nc1c(Cl)cc(C(=O)NCC2CCN(CC3CCOCC3)CC2)c2ncccc12.O=C(O)/C=C/C(=O)O [Example 1, 5-Amino-6-chloro-N-{[1-(tetrahydro-2H-pyran-4-ylmethyl)-4-piperidinyl]methyl}quinoline-8-carboxamide hemifumarate]",27%,24%,40%,22%,29%,–,–,–,–,–
"Nc1c(Cl)cc(C(=O)NCC2CCN(CC3CCOCC3)CC2)c2ncccc12.O=C(O)C(O)C(O)C(=O)O [Example 13, 5-Amino-6-chloro-N-{[1-(tetrahydro-2H-pyran-4-ylmethyl)-4-piperidinyl]methyl} quinoline-8-carboxamide L(+)-tartarate]",–,–,–,–,–,39%,41%,46%,66%,"0.1-1 mg/kg, p.o."
